Counter-ions that a name gives are not always drawn.
Molecular target: T1, rat GPR120 (Rattus norvegicus, UniProt Q2AC31)
T1 construct: expressed in transfected cells; host or cells: HEK293
T1 sequence (Q2AC31 1-361): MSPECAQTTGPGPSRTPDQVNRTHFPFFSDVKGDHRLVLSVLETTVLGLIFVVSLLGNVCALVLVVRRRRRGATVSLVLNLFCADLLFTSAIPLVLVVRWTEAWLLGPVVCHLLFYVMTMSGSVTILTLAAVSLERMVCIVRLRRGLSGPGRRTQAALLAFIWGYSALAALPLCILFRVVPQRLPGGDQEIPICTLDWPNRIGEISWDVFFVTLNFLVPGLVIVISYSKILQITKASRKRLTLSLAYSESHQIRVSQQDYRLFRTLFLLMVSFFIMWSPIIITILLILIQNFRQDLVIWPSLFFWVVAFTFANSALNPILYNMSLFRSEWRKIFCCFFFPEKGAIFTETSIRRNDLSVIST
Test: Rat GPR120 IP1 assay (inositol phosphate turnover)
Format: cell-based
Details: IP1 accumulation in HEK293 cells stably expressing rat GPR120
From the text: The binding of small molecule agonists to the G-protein-coupled receptor GPR120 activates phospholipase C, and leads to the generation of inositol 1,4,5-trisphosphate (InsP3 or IP3). IP3 is subsequently de-phosphorylated to IP1, which accumulates in cells and is stable in the presence of lithium chloride.
In the present method, agonist-induced activation of the human and rat GPR120 receptor was monitored by measuring the accumulation of IP1 in CHO-K1 cells that were stably expressing the short form of human GPR120 (Accession #NM_001195755) or HEK293 cells stably expressing rat GPR120 (Accession #NM_001047088). Following agonist addition, GPR120 activation and subsequent accumulation of IP1 was measured using a homogeneous Time Resolved Fluorescence-based ELISA commercially available from CisBio (IP-one ELISA Kit). The IP-One ELISA was a competitive immunoassay which uses IP1 labeled with […] and a terbium cryptate-labeled anti-IP1 monoclonal antibody. […] The signal loss was then back calculated to IP1 concentration using an IP1 standard curve. Determination of IP1 concentration was a direct measure of GPR120 activation and was used to determine compound potency (EC50).
Human GPR120 stable cell-lines were generated in CHO cells. The expression plasmids were transfected using lipofectamine (Life Technologies) following manufacturer's instructions. Stable cell-lines were generated following drug selection and single cell cloning. Rat GPR120 stable cell-lines were generated in HEK cells using the Jump-In™ cell engineering platform (Life Technologies) following manufacturer's instructions. Stable cell-lines were generated following drug selection and single cell cloning.
The assay was performed in 384-well format. CHO cells stably expressing human GPR120 were plated at 20,000 cells per well in growth medium (DMEM/F12, 10% fetal calf serum). HEK293 cells stably expressing rat GPR120 were plated at […] per well in growth medium (DMEM, 10% fetal calf serum). Cell plates were then incubated 16 hours at 37 degrees in a 5% CO2 incubator. Measurement of Inositol Phosphate Turnover (IP1) was performed using the CisBio IP-One kit (Part number 62IPAPEB). After the 16 hour incubation, the growth media was removed by centrifugation using the BlueWasher (AusWasher GUI Ver. v1.0.1.8) Protocol #21-“Light Dry” and 10 μl of stimulation buffer (prepared as described in the kit) was added to each well. In a separate plate, compounds were diluted in DMSO (200-fold over the final concentration in the assay well) and 50 nl was acoustically transferred to the appropriate well in the assay cell plate. The plates were then incubated for 60 minutes at 37 degrees in a 5% CO2 incubator. 10 μl of detection buffer (also prepared as described in the IP-One kit) was added to each well and the plates were incubated at room temperature for 60 minutes in the dark. The plates were then read in a Perkin ElmerEnVision or equivalent reader able to measure FRET. Fluorescent ratio of emission at 665 and 620 nm was then converted to the IP1 concentration by back calculating from an IP1 standard curve prepared at the time of the assay. The data was normalized to % activity using a reference compound, and the EC50 values were determined using a standard 4-parameter fit.

Q: `Oc1cc(-c2ccc(O[C@H]3C[C@H](c4ccc(F)cc4)C3)cc2)on1` [Example 12, 5-(4-{[trans-3-(4-fluorophenyl)cyclobutyl]oxy}phenyl)isoxazol-3-ol] was tested. Which EC50 did it give?
A: 1.5 nM

Q: Which EC50 does the source give for `Oc1cc(-c2ccc(O[C@H]3C[C@H](c4ccc(C(F)(F)F)cn4)C3)nc2)on1` [Example 23, 5-[6-({trans-3-[5-(trifluoromethyl)pyridin-2-yl]cyclobutyl}oxy)pyridin-3-yl]isoxazol-3-ol] here?
A: 100 nM

Q: How did the EC50 turn out when `Oc1cc(-c2cnc(O[C@H]3C[C@H](Oc4cccc(OC(F)(F)F)c4)C3)cn2)on1` [Example 61, sodium 5-[5-({trans-3-[3-(trifluoromethoxy)phenoxy]-cyclobutyl}oxy)pyrazin-2-yl]isoxazol-3-olate] was run?
A: 1.8 nM

Q: For `Oc1cc(-c2ccc(O[C@H]3C[C@](F)(c4ccnc(OC5CCC5)c4)C3)nc2)on1` [Example 87, sodium 5-[6-({cis-3-[2-(cyclobutyloxy)pyridin-4-yl]-3-fluorocyclobutyl}oxy)pyridin-3-yl]isoxazol-3-olate], which EC50 is on record?
A: 4.7 nM

Q: With `Oc1cc(-c2ccc(O[C@H]3C[C@@](F)(c4ccnc(OC5CCC5)c4)C3)nc2)on1` [Example 88, 2-(cyclobutyloxy)-4-(trans-1-fluoro-3-{[5-(3-hydroxyisoxazol-5-yl)pyridinium-2-yl]oxy}cyclobutyl)pyridinium bis(trifluoroacetate)] as the molecule, how does the EC50 read?
A: 42.2 nM

Q: `Oc1cc(-c2cnc(O[C@H]3C[C@](F)(c4ccnc(OC5CC5)c4)C3)cn2)on1` [Example 91, ammonium 5-[5-({cis-3-[2-(cyclopropyloxy)pyridin-4-yl]-3-fluoro-cyclobutyl}oxy)pyrazin-2-yl]isoxazol-3-olate] was tested. Which EC50 did it give?
A: 36 nM

Q: For `CCOc1cc([C@]2(F)C[C@@H](Oc3cnc(-c4cc(O)no4)cn3)C2)ccn1` [Example 94, 5-(5-{[cis-3-(2-ethoxypyridin-4-yl)-3-fluorocyclobutyl]oxy}pyrazin-2-yl)isoxazol-3-ol], which EC50 is on record?
A: 890 nM

Q: For `Oc1cc(-c2cnc(O[C@H]3C[C@@](F)(c4ccnc(OC5CCC5)c4)C3)cn2)on1` [Example 95, 5-[5-({trans-3-[2-(cyclobutyloxy)pyridin-4-yl]-3-fluorocyclobutyl}oxy)pyrazin-2-yl]isoxazol-3-ol], which EC50 is on record?
A: 18 nM

Q: For `Oc1cc(-c2cnc(O[C@H]3C[C@](F)(c4ccnc(OC5CCC5)c4)C3)cn2)on1` [Example 96, sodium 5-[5-({cis-3-[2-(cyclobutyloxy)pyridin-4-yl]-3-fluorocyclobutyl}oxy)pyrazin-2-yl]isoxazol-3-olate], which EC50 is on record?
A: 33 nM

Q: For `Oc1cc(-c2cnc(O[C@H]3C[C@@](F)(c4nc(C(F)(F)F)cs4)C3)cn2)on1` [Example 102, ammonium 5-[5-({trans-3-fluoro-3-[4-(trifluoromethyl)-1,3-thiazol-2-yl]cyclobutyl}oxy)pyrazin-2-yl]isoxazol-3-olate], which EC50 is on record?
A: 1160 nM

Q: How did the EC50 turn out when `Oc1cc(-c2ccc(O[C@H]3C[C@H](c4ccc(Cl)cc4)C3)cn2)on1` [Example 110, 5-{[trans-3-(4-chlorophenyl)cyclobutyl]oxy}-2-(3-hydroxyisoxazol-5-yl)pyridinium trifluoroacetate] was run?
A: 1.1 nM

Q: `Oc1cc(-c2ccc(O[C@H]3C[C@@H](c4ccc(Cl)cc4)C3)cn2)on1` [Example 111, 5-{[cis-3-(4-chlorophenyl)cyclobutyl]oxy}-2-(3-hydroxyisoxazol-5-yl)pyridinium trifluoroacetate] was tested. Which EC50 did it give?
A: 0.8 nM

Q: With `Oc1cc(-c2cnc(O[C@H]3C[C@H](c4ccc(Cl)cc4)C3)nc2)on1` [Example 115, 5-(2-{[trans-3-(4-chlorophenyl)cyclobutyl]oxy}pyrimidin-5-yl)isoxazol-3-ol] as the molecule, how does the EC50 read?
A: 5.8 nM

Source: patent publication US10864211B2, “Hydroxy isoxazole compounds useful as GPR120 agonists” (Merck Sharp & Dohme Corp., priority 2016, dated 2020)
